Reference: patent US20240409585A1, “MACROCYCLIC IMMUNOMODULATORS” (priority 2021, published 2024)
Read-outs that look alike come from different tables or passages of the source. Bridge positions count the residues as written; N and C are the ends. Square brackets hold non-standard residues; d marks the D form. Peptide text beside a SMILES is read from it. * marks the point of attachment. Phe(4-COOH) = N[C@@H](Cc1ccc(C(=O)O)cc1)C(=O)O; Bip = N[C@@H](Cc1ccc(-c2ccccc2)cc1)C(=O)O; pY = N[C@@H](Cc1ccc(OP(=O)(O)O)cc1)C(=O)O; Phe(3-Cl) = N[C@@H](Cc1cccc(Cl)c1)C(=O)O; Phe(3-Me) = Cc1cccc(C[C@H](N)C(=O)O)c1; Val(3-OH) = CC(C)(O)[C@H](N)C(=O)O; Cha = N[C@@H](CC1CCCCC1)C(=O)O; Cit = NC(=O)NCCC[C@H](N)C(=O)O; Carboxymethyl = O=C(O)C*; NMeA = CN[C@@H](C)C(=O)O; Orn = NCCC[C@H](N)C(=O)O; Pra = C#CC[C@H](N)C(=O)O; dAbu = CC[C@@H](N)C(=O)O; Dab = NCC[C@H](N)C(=O)O; Dap = NC[C@H](N)C(=O)O

Target: T1, PE-labeled human PD-L1-Ig binding to Jurkat cell line over-expressing human PD-1 (Jurkat-PD-1) (Homo sapiens, UniProt Q15116)
T1 construct: expressed in transfected cells; host or cells: Jurkat
T1 sequence (Q15116 25-288): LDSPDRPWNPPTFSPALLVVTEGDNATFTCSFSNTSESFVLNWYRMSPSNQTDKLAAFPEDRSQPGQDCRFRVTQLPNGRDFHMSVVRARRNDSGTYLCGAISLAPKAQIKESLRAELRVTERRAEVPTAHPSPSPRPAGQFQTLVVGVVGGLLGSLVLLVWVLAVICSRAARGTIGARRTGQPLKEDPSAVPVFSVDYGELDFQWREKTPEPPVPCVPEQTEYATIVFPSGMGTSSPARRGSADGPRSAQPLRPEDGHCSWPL
Assay: Jurkat-PD-1 Cell Binding High-Content Screening Assay (CBA): Method 1
Conditions: Jurkat-hPD-1 cells, PE-labeled PD-L1-Ig 20 nM final

[1] = read-out: Jurkat HPDL1 PD1 IC50 (uM) (Method 1)

Row | SMILES | IC50 [1] [µM] | IC50 (Jurkat HPDL1 PD1 IC50 (uM) (Method 1)) [µM]
1 | CC(C)C[C@@H]1NC(=O)[C@H](Cc2c[nH]c3ccccc23)NC(=O)[C@H](CC(=O)O)NC(=O)[C@H](Cc2ccc(O)cc2)NC(=O)[C@H](Cc2ccccc2)NC(=O)CSC[C@@H](C(=O)NCC(N)=O)NC(=O)[C@H](CO)NC(=O)[C@H](C(C)C)NC(=O)[C@H](CC(C)C)NC(=O)[C@H](CC(N)=O)NC(=O)[C@H](CCC(N)=O)NC(=O)[C@H](C)N(C)C(=O)[C@H](C(C)C)NC(=O)[C@H](Cc2ccc(-c3ccccc3)cc2)NC1=O [Compound 1811] ({CH2CO}-FYDWL[Bip]V[NMeA]QNLVSCG-NH2; thioether N-14) | 0.28 | –
2 | C#CC[C@H](NC(=O)[C@@H](C)NC(=O)[C@@H]1CSCC(=O)N[C@@H]([C@@H](C)O)C(=O)N[C@@H](Cc2ccc(C(=O)O)cc2)C(=O)N[C@@H](CC(=O)O)C(=O)N[C@@H](Cc2cccc(C)c2)C(=O)N[C@@H](Cc2ccc(C(=O)O)cc2)C(=O)N[C@@H](Cc2ccc(-c3ccccc3)cc2)C(=O)N[C@@H](Cc2ccc(OCC(=O)O)cc2)C(=O)N(C)[C@@H](C)C(=O)N[C@H](CC(C)C)C(=O)N[C@@H](CCN)C(=O)N[C@@H](CC2CCCCC2)C(=O)N[C@@H](C(C)(C)O)C(=O)N[C@@H](CCC(=O)O)C(=O)N1)C(N)=O [Compound 1947] ({CH2CO}-T[Phe(4-COOH)]D[Phe(3-Me)][Phe(4-COOH)][Bip]Y(Carboxymethyl)[NMeA][dL][Dab][Cha][Val(3-OH)]EC[dA][Pra]-NH2; thioether N-14) | 0.43 | –
3 | CC(C)C[C@@H]1NC(=O)[C@H](CCN)NC(=O)[C@@H](CC(C)C)NC(=O)[C@H](C)N(C)C(=O)[C@H](CCCNC(=N)N)NC(=O)[C@H](Cc2ccc(-c3ccccc3)cc2)NC(=O)[C@H](C(C)C)NC(=O)[C@H](Cc2c[nH]c3ccccc23)NC(=O)[C@H](CC(=O)O)NC(=O)[C@H](Cc2ccc(O)cc2)NC(=O)[C@H](Cc2ccccc2)NC(=O)CSC[C@@H](C(=O)N[C@@H](CO)C(N)=O)NC(=O)[C@H]([C@@H](C)O)NC(=O)[C@H](C(C)C)NC1=O [Compound 1178] ({CH2CO}-FYDWV[Bip]R[NMeA][dL][Dab]LVTCS-NH2; thioether N-14) | 0.05 | –
4 | Cc1cccc(C[C@@H]2NC(=O)[C@H](Cc3ccccc3)NC(=O)CSC[C@@H](C(=O)NCC(N)=O)NC(=O)[C@H](CO)NC(=O)[C@H](C(C)C)NC(=O)[C@H](CC(C)C)NC(=O)[C@H](CC(N)=O)NC(=O)[C@@H](CC(C)C)NC(=O)[C@H](C)N(C)C(=O)[C@H](C(C)C)NC(=O)[C@H](Cc3ccc(-c4ccccc4)cc3)NC(=O)[C@H](CC(C)C)NC(=O)[C@H](Cc3c[nH]c4ccccc34)NC(=O)[C@H](CC(=O)O)NC2=O)c1 [Compound 1518] ({CH2CO}-F[Phe(3-Me)]DWL[Bip]V[NMeA][dL]NLVSCG-NH2; thioether N-14) | 0.05 | –
5 | CC(C)C[C@@H]1NC(=O)[C@H](CCCNC(=N)N)NC(=O)[C@@H](Cc2ccccc2)NC(=O)[C@H](C)N(C)C(=O)[C@H](CCCNC(=N)N)NC(=O)[C@H](Cc2ccc(-c3ccccc3)cc2)NC(=O)[C@H](C(C)C)NC(=O)[C@H](Cc2c[nH]c3ccccc23)NC(=O)[C@H](CC(=O)O)NC(=O)[C@H](Cc2ccc(O)cc2)NC(=O)[C@H](Cc2cnc[nH]2)NC(=O)CSC[C@@H](C(=O)N[C@@H](C)C(N)=O)NC(=O)[C@H](CO)NC(=O)[C@H](C(C)C)NC1=O [Compound 1044] ({CH2CO}-HYDWV[Bip]R[NMeA][dF]RLVSCA-NH2; thioether N-14) | 0.04 | –
6 | CC[C@H]1NC(=O)[C@H](C)N(C)C(=O)[C@H](CCCNC(=N)N)NC(=O)[C@H](Cc2ccc(-c3ccccc3)cc2)NC(=O)[C@H](C(C)C)NC(=O)[C@H](Cc2c[nH]c3ccccc23)NC(=O)[C@H](CC(=O)O)NC(=O)[C@H](Cc2ccc(O)cc2)NC(=O)[C@H](Cc2ccccc2)NC(=O)CSC[C@@H](C(=O)N[C@@H](C)C(N)=O)NC(=O)[C@H]([C@@H](C)O)NC(=O)[C@H](C(C)C)NC(=O)[C@H](CC(C)C)NC(=O)[C@H](CCCNC(=N)N)NC1=O [Compound 1069] ({CH2CO}-FYDWV[Bip]R[NMeA][dAbu]RLVTCA-NH2; thioether N-14) | 0.22 | –
7 | CC(C)C[C@@H]1NC(=O)[C@H](Cc2c[nH]c3ccccc23)NC(=O)[C@H](CC(=O)O)NC(=O)[C@H](Cc2ccc(OP(=O)(O)O)cc2)NC(=O)[C@H](Cc2ccccc2)NC(=O)CSC[C@@H](C(=O)N[C@@H](C)C(N)=O)NC(=O)[C@H](CO)NC(=O)[C@H](C(C)C)NC(=O)[C@H](CC(C)C)NC(=O)[C@H](CC(N)=O)NC(=O)[C@@H](C)NC(=O)[C@H](C)N(C)C(=O)[C@H](C(C)C)NC(=O)[C@H](Cc2ccc(-c3ccccc3)cc2)NC1=O [Compound 1756] ({CH2CO}-F[pY]DWL[Bip]V[NMeA][dA]NLVSCA-NH2; thioether N-14) | – | 0.03

The next lines start with results.

Row | IC50 [1] [µM] | SMILES | IC50 (Jurkat HPDL1 PD1 IC50 (uM) (Method 1)) [µM]
8 | 0.02 | CC[C@H](C)[C@@H]1NC(=O)[C@H](Cc2ccc(-c3ccccc3)cc2)NC(=O)[C@H](C(C)(C)O)NC(=O)[C@H](Cc2cccc(C)c2)NC(=O)[C@H](CC(=O)O)NC(=O)[C@H](Cc2ccc(O)cc2)NC(=O)[C@H](CC(N)=O)NC(=O)CSC[C@@H](C(=O)N[C@@H](CCN)C(N)=O)NC(=O)[C@H](CCC(=O)O)NC(=O)[C@H](C(C)C)NC(=O)[C@H](CC2CCCCC2)NC(=O)[C@H](CCN)NC(=O)[C@@H](CC(C)C)NC(=O)[C@H](C)N(C)C1=O [Compound 1697] ({CH2CO}-NYD[Phe(3-Me)][Val(3-OH)][Bip]I[NMeA][dL][Dab][Cha]VEC[Dab]-NH2; thioether N-14) | –
9 | 0.04 | CC(C)C[C@@H]1NC(=O)[C@H](CCN)NC(=O)[C@@H](CC(C)C)NC(=O)[C@H](C)N(C)C(=O)[C@H](CCCNC(=N)N)NC(=O)[C@H](Cc2ccc(-c3ccccc3)cc2)NC(=O)[C@H](C(C)C)NC(=O)[C@H](Cc2cccc(Cl)c2)NC(=O)[C@H](CC(=O)O)NC(=O)[C@H](Cc2ccc(OCC(=O)O)cc2)NC(=O)[C@H](CN)NC(=O)CSC[C@@H](C(=O)N[C@@H](C)C(N)=O)NC(=O)[C@H]([C@@H](C)O)NC(=O)[C@H](C(C)C)NC1=O [Compound 1458] ({CH2CO}-[Dap]Y(Carboxymethyl)D[Phe(3-Cl)]V[Bip]R[NMeA][dL][Dab]LVTCA-NH2; thioether N-14) | –
10 | 0.01 | CC(C)C[C@@H]1NC(=O)[C@H](CC(N)=O)NC(=O)[C@@H](CC(C)C)NC(=O)[C@H](C)N(C)C(=O)[C@H](CCCNC(N)=O)NC(=O)[C@H](Cc2ccc(-c3ccccc3)cc2)NC(=O)[C@H](C(C)C)NC(=O)[C@H](Cc2c[nH]c3ccccc23)NC(=O)[C@H](CC(=O)O)NC(=O)[C@H](Cc2ccc(O)cc2)NC(=O)[C@H](Cc2ccccc2)NC(=O)CSC[C@@H](C(=O)N[C@@H](C)C(=O)N[C@@H](CCCN)C(=O)O)NC(=O)[C@H](CO)NC(=O)[C@H](C(C)C)NC1=O [Compound 2237] ({CH2CO}-FYDWV[Bip][Cit][NMeA][dL]NLVSCA[Orn]-OH; thioether N-14) | –
11 | 0.01 | CC(C)C[C@H]1NC(=O)[C@H](C)N(C)C(=O)[C@H](CCCNC(N)=O)NC(=O)[C@H](Cc2ccc(-c3ccccc3)cc2)NC(=O)[C@H](C(C)C)NC(=O)[C@H](Cc2c[nH]c3ccccc23)NC(=O)[C@H](CC(=O)O)NC(=O)[C@H](Cc2ccc(O)cc2)NC(=O)[C@H](CC(N)=O)NC(=O)CSC[C@@H](C(=O)N[C@@H](C)C(N)=O)NC(=O)[C@H]([C@@H](C)O)NC(=O)[C@H](C(C)C)NC(=O)[C@H](CC2CCCCC2)NC(=O)[C@H](CCN)NC1=O [Compound 1287] ({CH2CO}-NYDWV[Bip][Cit][NMeA][dL][Dab][Cha]VTCA-NH2; thioether N-14) | –
